This is an account of results in ChEMBL document CHEMBL3886225, “Morpholinylquinazolines” (2015).

Broadly, the IC50 is the concentration at which inhibition is half-maximal. Low readings indicate greater potency, high ones weaker potency.

This assay addresses DNA-dependent protein kinase catalytic subunit (Homo sapiens, UniProt P78527). Nature of the assay: Biochemical Assay: The kinase assay was carried out in streptavidin-coated […] microtitre FlashPlates®. To this end, 1.5 μg of the DNA-PK/protein complex and 100 ng of biotinylated substrate, such as, for example, PESQEAFADLWKK biotin-NH2 (biotin-DNA-PK peptide), in a total volume of 36.5 μl (34.25 mM HEPES/KOH, 7.85 mM Tris-HCl, 68.5 mM KCl, 5 μM ATP, 6.85 mM MgCl2, 0.5 mM EDTA, 0.14 mM EGTA, 0.69 mM DTT, pH 7.4), were incubated at room temperature for 90 min with 500 ng of DNA from calf thymus, 0.1 μCi of 33P-ATP and 1.8% of DMSO per well with or without the test compound. The reaction was stopped using 50 μl/well of 200 mM EDTA. After incubation for a further 30 min at room temperature, the liquid was removed. Each well was washed three times with 100 μl of 0.9% sodium chloride solution. A non-specific reaction (blank value) was determined using 10 μM of a proprietary kinase inhibitor.

Sequence of DNA-dependent protein kinase catalytic subunit (P78527 whole entry): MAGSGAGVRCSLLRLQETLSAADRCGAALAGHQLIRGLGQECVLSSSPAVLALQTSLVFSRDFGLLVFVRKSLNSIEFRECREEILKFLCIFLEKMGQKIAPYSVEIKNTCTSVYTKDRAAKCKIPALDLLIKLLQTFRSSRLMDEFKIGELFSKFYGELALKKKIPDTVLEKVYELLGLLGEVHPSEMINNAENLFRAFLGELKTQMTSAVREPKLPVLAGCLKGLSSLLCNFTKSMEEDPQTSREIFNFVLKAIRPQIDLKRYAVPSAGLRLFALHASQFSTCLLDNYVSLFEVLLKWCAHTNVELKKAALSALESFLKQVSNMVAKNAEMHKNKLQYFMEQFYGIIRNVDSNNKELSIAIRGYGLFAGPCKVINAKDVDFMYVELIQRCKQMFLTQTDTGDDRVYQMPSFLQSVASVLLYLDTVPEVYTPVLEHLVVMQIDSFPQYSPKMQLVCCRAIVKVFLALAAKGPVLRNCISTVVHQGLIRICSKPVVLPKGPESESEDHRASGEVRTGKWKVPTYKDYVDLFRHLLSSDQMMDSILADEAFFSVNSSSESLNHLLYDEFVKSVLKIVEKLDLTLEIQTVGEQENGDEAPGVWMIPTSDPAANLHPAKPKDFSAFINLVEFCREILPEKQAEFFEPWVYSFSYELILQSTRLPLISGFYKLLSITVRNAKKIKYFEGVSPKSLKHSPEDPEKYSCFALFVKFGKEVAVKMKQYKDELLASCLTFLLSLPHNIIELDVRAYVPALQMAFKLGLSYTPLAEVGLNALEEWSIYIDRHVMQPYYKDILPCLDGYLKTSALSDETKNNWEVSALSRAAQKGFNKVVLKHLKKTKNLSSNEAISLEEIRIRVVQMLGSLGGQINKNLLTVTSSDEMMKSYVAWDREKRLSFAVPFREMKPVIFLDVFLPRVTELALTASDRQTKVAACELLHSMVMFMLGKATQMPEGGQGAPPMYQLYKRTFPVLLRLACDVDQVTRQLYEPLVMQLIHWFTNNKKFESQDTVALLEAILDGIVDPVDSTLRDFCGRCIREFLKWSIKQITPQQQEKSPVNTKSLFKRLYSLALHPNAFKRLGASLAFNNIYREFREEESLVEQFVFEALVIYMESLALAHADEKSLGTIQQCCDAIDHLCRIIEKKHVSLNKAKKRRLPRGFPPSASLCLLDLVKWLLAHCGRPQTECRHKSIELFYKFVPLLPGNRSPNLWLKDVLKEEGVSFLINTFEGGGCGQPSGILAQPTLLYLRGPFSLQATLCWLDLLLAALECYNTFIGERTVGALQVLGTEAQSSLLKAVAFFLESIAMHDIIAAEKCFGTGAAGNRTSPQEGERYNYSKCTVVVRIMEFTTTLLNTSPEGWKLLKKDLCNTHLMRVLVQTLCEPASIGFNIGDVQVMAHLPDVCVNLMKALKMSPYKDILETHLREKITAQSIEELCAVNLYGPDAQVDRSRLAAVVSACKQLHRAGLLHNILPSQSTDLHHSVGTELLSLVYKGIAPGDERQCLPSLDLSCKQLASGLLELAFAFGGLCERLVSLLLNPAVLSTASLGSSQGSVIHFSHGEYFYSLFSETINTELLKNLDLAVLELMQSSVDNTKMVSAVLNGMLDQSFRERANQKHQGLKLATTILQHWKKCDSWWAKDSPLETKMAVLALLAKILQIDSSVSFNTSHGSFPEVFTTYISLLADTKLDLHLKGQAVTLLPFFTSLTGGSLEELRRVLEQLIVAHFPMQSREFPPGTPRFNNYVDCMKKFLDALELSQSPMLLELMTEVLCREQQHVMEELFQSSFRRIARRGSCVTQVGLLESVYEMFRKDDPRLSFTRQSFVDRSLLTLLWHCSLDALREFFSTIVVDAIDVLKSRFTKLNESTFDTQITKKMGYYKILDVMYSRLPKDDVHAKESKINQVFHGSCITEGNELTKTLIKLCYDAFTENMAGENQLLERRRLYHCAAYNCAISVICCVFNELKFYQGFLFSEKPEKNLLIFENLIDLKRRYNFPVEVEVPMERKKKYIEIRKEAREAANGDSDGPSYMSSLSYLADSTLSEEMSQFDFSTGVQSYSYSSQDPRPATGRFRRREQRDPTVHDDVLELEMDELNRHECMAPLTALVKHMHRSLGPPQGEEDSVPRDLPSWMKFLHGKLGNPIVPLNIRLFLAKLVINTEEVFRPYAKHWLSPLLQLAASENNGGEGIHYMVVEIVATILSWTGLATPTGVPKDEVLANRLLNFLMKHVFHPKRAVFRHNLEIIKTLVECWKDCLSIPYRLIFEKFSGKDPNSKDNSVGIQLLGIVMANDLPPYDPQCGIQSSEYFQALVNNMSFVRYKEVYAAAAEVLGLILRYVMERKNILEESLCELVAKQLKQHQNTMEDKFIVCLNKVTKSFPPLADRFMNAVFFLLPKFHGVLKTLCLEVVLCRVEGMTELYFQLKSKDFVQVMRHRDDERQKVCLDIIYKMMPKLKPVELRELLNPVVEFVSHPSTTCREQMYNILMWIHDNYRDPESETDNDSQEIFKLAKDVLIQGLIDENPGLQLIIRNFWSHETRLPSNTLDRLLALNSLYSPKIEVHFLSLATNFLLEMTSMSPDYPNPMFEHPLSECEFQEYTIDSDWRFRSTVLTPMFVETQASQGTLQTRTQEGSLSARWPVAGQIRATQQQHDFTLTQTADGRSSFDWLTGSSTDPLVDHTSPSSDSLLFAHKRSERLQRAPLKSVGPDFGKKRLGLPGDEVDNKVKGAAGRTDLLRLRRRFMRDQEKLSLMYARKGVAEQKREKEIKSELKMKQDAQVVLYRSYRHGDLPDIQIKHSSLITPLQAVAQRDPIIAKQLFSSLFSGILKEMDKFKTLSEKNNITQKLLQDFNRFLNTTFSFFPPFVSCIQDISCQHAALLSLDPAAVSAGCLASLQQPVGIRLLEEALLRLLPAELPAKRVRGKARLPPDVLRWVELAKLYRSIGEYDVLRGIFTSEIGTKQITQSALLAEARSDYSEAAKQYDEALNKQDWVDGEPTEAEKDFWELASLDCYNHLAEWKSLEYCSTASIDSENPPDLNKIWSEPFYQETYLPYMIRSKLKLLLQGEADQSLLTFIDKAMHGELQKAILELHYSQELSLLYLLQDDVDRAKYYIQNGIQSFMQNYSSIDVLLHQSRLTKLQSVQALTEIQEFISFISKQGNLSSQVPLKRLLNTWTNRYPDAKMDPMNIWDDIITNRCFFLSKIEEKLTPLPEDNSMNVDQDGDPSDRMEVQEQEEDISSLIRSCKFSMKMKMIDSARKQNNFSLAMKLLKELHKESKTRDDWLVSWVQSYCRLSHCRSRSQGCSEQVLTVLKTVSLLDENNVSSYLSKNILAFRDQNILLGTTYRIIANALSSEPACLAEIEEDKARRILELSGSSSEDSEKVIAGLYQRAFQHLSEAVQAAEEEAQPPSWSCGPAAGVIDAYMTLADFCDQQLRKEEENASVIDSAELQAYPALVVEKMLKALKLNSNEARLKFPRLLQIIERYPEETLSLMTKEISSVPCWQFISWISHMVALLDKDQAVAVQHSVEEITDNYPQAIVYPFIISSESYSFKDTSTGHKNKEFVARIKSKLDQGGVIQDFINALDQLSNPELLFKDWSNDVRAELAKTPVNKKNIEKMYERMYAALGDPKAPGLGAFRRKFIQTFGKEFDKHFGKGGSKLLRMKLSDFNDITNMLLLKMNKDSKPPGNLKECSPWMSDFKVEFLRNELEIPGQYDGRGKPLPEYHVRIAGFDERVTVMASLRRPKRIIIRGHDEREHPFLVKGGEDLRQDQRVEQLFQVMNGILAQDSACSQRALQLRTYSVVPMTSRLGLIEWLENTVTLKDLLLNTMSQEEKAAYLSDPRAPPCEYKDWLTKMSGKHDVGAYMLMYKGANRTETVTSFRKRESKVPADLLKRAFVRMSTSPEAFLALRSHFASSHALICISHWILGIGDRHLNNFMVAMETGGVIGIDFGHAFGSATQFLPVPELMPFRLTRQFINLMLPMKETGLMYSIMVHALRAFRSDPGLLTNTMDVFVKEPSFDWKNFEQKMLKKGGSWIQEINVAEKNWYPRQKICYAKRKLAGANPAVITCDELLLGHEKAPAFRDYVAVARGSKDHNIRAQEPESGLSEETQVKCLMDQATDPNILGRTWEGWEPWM

On to `O=S(=O)(NC1CCCN(c2nc(Cl)nc3cc(N4CCOCC4)ccc23)C1)c1cccs1` (stereo unspecified), for which the IC50 is less than 100 nM.
